Read-outs that look alike come from different tables or passages of the source.
Columns and labels:
NK-1 = biological target: T1, NK-1 (Homo sapiens, UniProt P25103); assay: NK1 radioligand binding assay ([125I]Substance P, U373 membranes); conditions: U373 cell membranes, 200 pM [125I]Substance P, 1 hour at room temperature
T1 construct: 30 ul/well of a 2×U373 membrane preparation
Description: (§1) NK-1 Binding assay. Crude membrane suspensions were prepared for the NK1 and SERT radioligand binding assays from U373 cells or recombinant HEK-293 cells expressing hSERT, respectively. Cells were harvested from T-175 flasks as follows. The medium is removed from the flasks and the cells rinsed with HBSS without Ca and without Mg. The cells are then incubated for 5-10 minutes in 10 mM Tris-Cl, pH 7.5, 5 mM EDTA before the cells are lifted with a combination of pipetting and scraping, as needed. To prepare membranes, the cell suspension is collected into centrifuge bottles and homogenized for 30 seconds with a Polytron homogenizer. The suspension is centrifuged for 30 min@32,000×g, 4° C., then the supernatant is decanted and the pellet resuspended and homogenized in 50 mM Tris-Cl, pH 7.5, 1 mM EDTA for 10 seconds. The suspension is then centrifuged again for 30 min@32,000×g, 4° C. The supernatant is decanted and the pellet resuspended in 50 mM Tris-Cl, pH 7.5, 1 mM EDTA and briefly homogenized. A Bradford assay (Bio-rad) is performed and the membrane preparation diluted to 2 mg/ml with 50 mM Tris-Cl, pH 7.5, 1 mM EDTA. Aliquots are prepared, and then frozen and stored at −80° C.
NK1 radioligand binding assay. Compounds are dissolved in 100% DMSO at a concentration 100× the desired highest assay concentration, serially diluted 1:3 in 100% DMSO, and 0.6 ul/well of each solution is dispensed to a Nunc polypropylene, round bottom, 384 well plate. 100% inhibition is defined with 0.6 ul/well of 1 mM L-733,060 (Sigma L-137) dissolved in DMSO. 30 ul/well of a 2×U373 membrane preparation (267 ug/ml in 100 mM Tris-Cl, pH 7.5, 6 mM MgCl2, 0.2% (v/v) Sigma mammalian protease inhibitor cocktail (Sigma P-8340), and 4 ug/ml chymostatin, Sigma C-7268) and 30 ul/well of a 2× radioligand solution (400 pM [^125I]Substance P (Perkin ElmerNEX-190) in 1% (w/v) BSA (Sigma A-2153), 0.1 mg/ml bacitracin, Sigma B-0125) are added to the well and the reaction incubated for 1 hour at room temperature. The contents of the assay plate are then transferred to a Millipore MultiscreenHTS GF/B filter plate which has been pretreated with 0.5% PEI for at least one hour. The plate is vacuum filtered and washed with 7 washes of 100 ul/well of 20 mM Tris-Cl, pH 7.5, 0.5% (w/v) BSA chilled to 4° C. The filtration and washing is completed in less than 90 s. The plates are air-dried overnight, 12 ul/well of MicroScint scintillation fluid added, and the plates counted in a Trilux.
(§2) Data analysis. The raw data are normalized to percent inhibition using control wells defining 0% (DMSO only) and 100% (selective inhibitor) inhibition which are run on each plate. Each plate is run in triplicate, and the concentration response curve thus generated is fit using the four-parameter dose response equation, Y=Bottom+(Top-Bottom)/(1+10^((LogIC50−X)*HillSlope)) in order to determine the IC50 value for each compound. The radioligand concentration chosen for each assay corresponds to the Kd concentration determined through saturation binding analysis for each assay.

hSERT = hSERT (Homo sapiens, UniProt P31645); assay: SERT radioligand binding assay ([125I]RTI-55, HEK-hSERT membranes); conditions: HEK-293 hSERT membranes, 260 pM [125I]RTI-55, 1 hour at room temperature
Chain of hSERT (P31645 whole entry): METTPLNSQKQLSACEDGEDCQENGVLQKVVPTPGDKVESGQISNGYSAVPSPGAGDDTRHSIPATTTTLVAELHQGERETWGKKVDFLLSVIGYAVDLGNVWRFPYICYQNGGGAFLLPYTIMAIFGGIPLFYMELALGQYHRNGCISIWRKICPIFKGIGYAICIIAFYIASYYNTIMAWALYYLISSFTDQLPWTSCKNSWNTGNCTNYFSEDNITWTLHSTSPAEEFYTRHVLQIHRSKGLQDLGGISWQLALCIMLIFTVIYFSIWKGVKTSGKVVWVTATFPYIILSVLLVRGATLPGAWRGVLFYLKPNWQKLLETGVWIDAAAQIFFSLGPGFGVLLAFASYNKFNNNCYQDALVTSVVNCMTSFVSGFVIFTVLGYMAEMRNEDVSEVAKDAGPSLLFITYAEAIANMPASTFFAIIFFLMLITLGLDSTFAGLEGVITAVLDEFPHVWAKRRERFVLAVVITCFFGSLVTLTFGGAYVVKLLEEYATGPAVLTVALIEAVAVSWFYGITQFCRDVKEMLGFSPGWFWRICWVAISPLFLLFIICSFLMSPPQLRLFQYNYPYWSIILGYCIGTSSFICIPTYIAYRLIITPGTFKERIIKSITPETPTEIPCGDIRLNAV
Description: as §1
SERT radioligand binding assay. Compounds are dissolved in 100% DMSO at a concentration 100× the desired highest assay concentration, serially diluted 1:3 in 100% DMSO, and 0.4 ul/well of each solution is dispensed to a Nunc polypropylene, round bottom, 384 well plate. 100% inhibition is defined with 0.4 ul/well of 1 mM fluoxetine (Sigma F-132) dissolved in DMSO. 20 ul/well of a 2× HEK-hSERT membrane preparation (15 ug/ml in 50 mM Tris-Cl, pH 7.5, 120 mM NaCl, 5mM KCl) and 20 ul/well of a 2× radioligand solution (520 pM [^125I]RTI-55 (Perkin-Elmer NEX-272) in 50 mM Tris-Cl, pH 7.5, 120 mM NaCl, 5mM KCl) are added to each well and the reaction incubated for 1 hour at room temperature. The contents of the assay plate are then transferred to a Millipore MultiscreenHTs GF/B filter plate which has been pretreated with 0.5% PEI for at least one hour. The plate is vacuum filtered and washed with 7 washes of 100 ul/well of 50 mM Tris-Cl, pH 7.5, 120 mM NaCl, 5 mM KCl chilled to 4° C. The filtration and washing is completed in less than 90 s. The plates are air-dried overnight, 12 ul/well of MicroScint scintillation fluid added, and the plates counted in a Trilux.
as §2

T1 sequence (P25103 whole entry): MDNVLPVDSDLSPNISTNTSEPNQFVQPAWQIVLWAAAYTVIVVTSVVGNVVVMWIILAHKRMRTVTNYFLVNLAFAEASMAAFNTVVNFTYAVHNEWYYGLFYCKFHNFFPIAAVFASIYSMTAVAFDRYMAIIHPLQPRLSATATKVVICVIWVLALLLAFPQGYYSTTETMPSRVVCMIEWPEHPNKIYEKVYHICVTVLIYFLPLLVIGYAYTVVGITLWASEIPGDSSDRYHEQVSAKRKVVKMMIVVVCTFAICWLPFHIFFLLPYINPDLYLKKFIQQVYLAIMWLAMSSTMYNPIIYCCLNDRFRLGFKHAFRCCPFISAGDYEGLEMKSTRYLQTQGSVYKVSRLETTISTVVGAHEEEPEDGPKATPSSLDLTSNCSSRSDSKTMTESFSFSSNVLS

CC(OCC1(c2ccc(F)cc2)CCN(C)CC1)c1cc(C(F)(F)F)cc2cn(C)nc12 (single isomer, unassigned) [Example 29, 7-(1-((4-(4-Fluorophenyl)-1-methylpiperidin-4-yl)methoxy)ethyl)-2-methyl-5-(trifluoromethyl)-2H-indazole]
IC50 (NK-1): > 300 nM
IC50 (hSERT; read-out: SERT IC50): 0.01 to 100 nM

CC(OCC1(c2ccc(F)cc2)CCNCC1)c1cc(C(F)(F)F)cc2cnn(C)c12 (single isomer, unassigned) [Example 30, 7-(1-((4-(4-Fluorophenyl)piperidin-4-yl)methoxy)ethyl)-1-methyl-5-(trifluoromethyl)-1H-indazole]
IC50 (NK-1): 0.01 to 100 nM
IC50 (hSERT; read-out: SERT IC50): 0.01 to 100 nM

CC(OCC1(c2ccc(F)cc2)CCN(C)CC1)c1cc(C(F)(F)F)cc2cnn(C)c12 (single isomer, unassigned) [Example 31, 7-(1-((4-(4-Fluorophenyl)-1-methylpiperidin-4-yl)methoxy)ethyl)-1-methyl-5-(trifluoromethyl)-1H-indazole]
IC50 (NK-1): 0.01 to 100 nM
IC50 (hSERT; read-out: SERT IC50): 0.01 to 100 nM

CC(OCC1(c2ccc(F)cc2)CCNCC1)c1cc(C(F)(F)F)cc2cn(C)nc12 (single isomer, unassigned) [Example 32, 7-(1-((4-(4-Fluorophenyl)piperidin-4-yl)methoxy)ethyl)-2-methyl-5-(trifluoromethyl)-2H-indazole]
IC50 (NK-1): 0.01 to 100 nM
IC50 (hSERT; read-out: SERT IC50): 0.01 to 100 nM

CC(OCC1(c2ccc(F)cc2)CCN(C)CC1)c1cc(C(F)(F)F)cc2cn(C)nc12 (single isomer, unassigned) [Example 33, 7-(1-((4-(4-Fluorophenyl)-1-methylpiperidin-4-yl)methoxy)ethyl)-2-methyl-5-(trifluoromethyl)-2H-indazole]
IC50 (NK-1): 0.01 to 100 nM
IC50 (hSERT; read-out: SERT IC50): 0.01 to 100 nM

CC(OCC1(c2ccc(F)cc2)CCN(C)CC1)c1cc(C2CC2)cc2c(Cl)n[nH]c12 (single isomer, unassigned) [Example 54]
IC50 (NK-1): 0.01 to 100 nM
IC50 (hSERT; SERT IC50 (nM)): 0.01 to 100 nM

CC(OCC1(c2ccc(F)cc2)CCN(C)CC1)c1cc(C(F)(F)F)cc2ccn(C)c12 (single isomer, unassigned) [Example 74, 7-(1-((4-(4-Fluorophenyl)-1-methylpiperidin-4-yl)methoxy)ethyl)-1-methyl-5-(trifluoromethyl)-1H-indole]
IC50 (NK-1): > 300 nM
IC50 (hSERT; read-out: SERT IC50): 100 to 300 nM

CC(OCC1(c2ccc(F)cc2)CCN(C)CC1)c1cc(C(F)(F)F)cc2ccn(C)c12 (single isomer, unassigned) [Example 75, 7-(1-((4-(4-Fluorophenyl)-1-methylpiperidin-4-yl)methoxy)ethyl)-1-methyl-5-(trifluoromethyl)-1H-indole]
IC50 (NK-1): 0.01 to 100 nM
IC50 (hSERT; read-out: SERT IC50): 0.01 to 100 nM

CC(OCC1(c2ccccc2)CCN(C)CC1)c1cc(Br)cc2c1ncn2CC1CC1 (single isomer, unassigned) [Example 130]
IC50 (NK-1): > 300 nM
IC50 (hSERT; read-out: SERT IC50): 0.01 to 100 nM

CC(OCC1(c2ccccc2)CCN(C)CC1)c1cc(Br)cc2c1ncn2CC1CC1 (single isomer, unassigned) [Example 131]
IC50 (NK-1): 0.01 to 100 nM
IC50 (hSERT; read-out: SERT IC50): 0.01 to 100 nM

CC(OCC1(c2ccc(F)cc2)CCN(C)CC1)c1cc(C(F)(F)F)cc2c1ncn2CC1CC1 (single isomer, unassigned) [Example 133]
IC50 (NK-1): > 300 nM
IC50 (hSERT; read-out: SERT IC50): 0.01 to 100 nM

CC(OCC1(c2ccc(F)cc2)CCN(C)CC1)c1cc(C(F)(F)F)cc2c1ncn2CC1CC1 (single isomer, unassigned) [Example 134]
IC50 (NK-1): 0.01 to 100 nM
IC50 (hSERT; read-out: SERT IC50): 0.01 to 100 nM

CCn1cnc2c(C(C)OCC3(c4ccc(F)cc4)CCN(C)CC3)cc(C(F)(F)F)cc21 (single isomer, unassigned) [Example 135]
IC50 (NK-1): > 300 nM
IC50 (hSERT; read-out: SERT IC50): 0.01 to 100 nM

CCn1cnc2c(C(C)OCC3(c4ccc(F)cc4)CCN(C)CC3)cc(C(F)(F)F)cc21 (single isomer, unassigned) [Example 136]
IC50 (NK-1): 0.01 to 100 nM
IC50 (hSERT; read-out: SERT IC50): 0.01 to 100 nM

CCn1cnc2c(C(C)OCC3(c4ccccc4)CCN(C)CC3)cc(C(F)(F)F)cc21 (single isomer, unassigned) [Example 137]
IC50 (NK-1): 100 to 300 nM
IC50 (hSERT; read-out: SERT IC50): 0.01 to 100 nM

Cc1cc(COCC2(c3ccccc3)CCNCC2)cc2cn[nH]c12 [Example 1, 7-Methyl-5-(((4-phenylpiperidin-4-yl)methoxy)methyl)-1H-indazole]
IC50 (NK-1): > 300 nM
IC50 (hSERT; read-out: SERT IC50): 0.01 to 100 nM

Brc1cc(COCC2(c3ccccc3)CCNCC2)c2[nH]ncc2c1 [Example 2, 5-Bromo-7-(((4-phenylpiperidin-4-yl)methoxy)methyl)-1H-indazole]
IC50 (NK-1): 0.01 to 100 nM
IC50 (hSERT; read-out: SERT IC50): 0.01 to 100 nM

N#Cc1ccc(-c2cc(COCC3(c4ccccc4)CCNCC3)c3[nH]ncc3c2)cc1 [Example 3, 4-(7-(((4-Phenylpiperidin-4-yl)methoxy)methyl)-1H-indazol-5-yl)benzonitrile]
IC50 (NK-1): 0.01 to 100 nM
IC50 (hSERT; read-out: SERT IC50): 0.01 to 100 nM

Cn1ncc2cc(-c3ccc(C#N)cc3)cc(COCC3(c4ccccc4)CCNCC3)c21 [Example 4, 4-(1-Methyl-7-(((4-phenylpiperidin-4-yl)methoxy)methyl)-1H-indazol-5-yl)benzonitrile]
IC50 (NK-1): 100 to 300 nM
IC50 (hSERT; read-out: SERT IC50): 0.01 to 100 nM

Cn1cc2cc(-c3ccc(C#N)cc3)cc(COCC3(c4ccccc4)CCNCC3)c2n1 [Example 5, 4-(2-Methyl-7-(((4-phenylpiperidin-4-yl)methoxy)methyl)-2H-indazol-5-yl)benzonitrile]
IC50 (NK-1): > 300 nM
IC50 (hSERT; read-out: SERT IC50): 0.01 to 100 nM

Cc1cc(COCC2(c3ccccc3)CCNCC2)c2[nH]ncc2c1 [Example 6, 5-Methyl-7-(((4-phenylpiperidin-4-yl)methoxy)methyl)-1H-indazole]
IC50 (NK-1): 0.01 to 100 nM
IC50 (hSERT; read-out: SERT IC50): 0.01 to 100 nM

Cc1cc(COCC2(c3ccccc3)CCNCC2)c2c(cnn2C)c1 [Example 7, 1,5-Dimethyl-7-(((4-phenylpiperidin-4-yl)methoxy)methyl)-1H-indazole]
IC50 (NK-1): 0.01 to 100 nM
IC50 (hSERT; read-out: SERT IC50): 0.01 to 100 nM

Cc1cc(COCC2(c3ccccc3)CCNCC2)c2nn(C)cc2c1 [Example 8, 2,5-Dimethyl-7-(((4-phenylpiperidin-4-yl)methoxy)methyl)-2H-indazole]
IC50 (NK-1): 0.01 to 100 nM
IC50 (hSERT; read-out: SERT IC50): 0.01 to 100 nM

FC(F)(F)c1cc(COCC2(c3ccccc3)CCNCC2)c2[nH]ncc2c1 [Example 9, 7-(((4-Phenylpiperidin-4-yl)methoxy)methyl)-5-(trifluoromethyl)-1H-indazole]
IC50 (NK-1): 0.01 to 100 nM
IC50 (hSERT; read-out: SERT IC50): 0.01 to 100 nM

CN1CCC(COCc2cc(C(F)(F)F)cc3cn[nH]c23)(c2ccccc2)CC1 [Example 10, 7-(((1-Methyl-4-phenylpiperidin-4-yl)methoxy)methyl)-5-(trifluoromethyl)-1H-indazole]
IC50 (NK-1): 0.01 to 100 nM
IC50 (hSERT; read-out: SERT IC50): 0.01 to 100 nM

Cn1ncc2cc(C(F)(F)F)cc(COCC3(c4ccccc4)CCNCC3)c21 [Example 11, 1-Methyl-7-(((4-phenylpiperidin-4-yl)methoxy)methyl)-5-(trifluoromethyl)-1H-indazole]
IC50 (NK-1): 0.01 to 100 nM
IC50 (hSERT; read-out: SERT IC50): 0.01 to 100 nM
